Assays:
c-KIT V560G/D816V = biological target: T1, c-KIT V560G/D816V (Homo sapiens, UniProt P10721, D816V/V560G); test: ADP-Glo kinase assay on c-KIT V560G/D816V; type: biochemical; conditions: for IC50: ADP-Glo kinase assay, 10 μM ATP; for fold higher enzymatic inhibitory activity against c-KIT V560G/D816V compared with imatinib: versus imatinib
T1 construct: purchased Promega VA7063
Procedure: (§1) Biochemical kinase assays on c-KIT protein kinase were performed at Reaction Biology Corp. (San Diego, CA, USA). […] The kinase assay followed the manufacturer’s instruction. IC50 values were calculated by GraphPad prism 8.0 software (GraphPad Software, San Diego, CA, USA).

GIST-T1 cells [1] = test: Cell viability assay (CellTiter-Glo); type: cell-based; conditions: Homo sapiens, GISTT1; 72 h; concentration causing half-maximal growth inhibition
Procedure: (§2) GIST-T1 (Cosmobio, Tokyo, Japan, # PMC-GIST01C-COS) cells were cultured in DMEM (Welgene, # LM001-05) and HMC1.2 (Merck, Darmstadt, Germany, # SCC062) cells were cultured in IMDM (Welgene, # LM004-01). Parental Ba/F3 (DSMZ, Braunschweig, Germany, # ACC300) cells were cultured in RPMI (Welgene, # LM011-51) with 10 ng IL-3/mL (Enzo, # ALX-201-821). The culture media was supplemented with 10% fetal bovine serum and 1% penicillin/streptomycin solution. The cells were maintained in a humidified atmosphere containing 5% CO2 at 37 °C.
(§3) Cells (GIST-T1: 5.0 × 10^3; HMC1.2: 1 × 10^4) were seeded in 96-well plates. Each compound was treated in each well at 10 dose points of 3-fold serial dilution. After treatment with each compound for 72 h, CellTiter-Glo solution (Promega, # G7572) was added to each well. Anti-proliferation activity was measured the luminescence using a 96-well plate reader (EnVision 2013).

HMC1.2 cells [2] = test: Cell viability assay (CellTiter-Glo); type: cell-based, human; conditions: 72 h; for GI50: Homo sapiens
Procedure: as §2, §3

c-KIT D816V Ba/F3 cells [3] = test: Anti-proliferative activity on Ba/F3 cells; type: cell-based; conditions: Mus musculus, BaF3
parental Ba/F3 cells = test: Anti-proliferative activity on Ba/F3 cells; type: cell-based; conditions: Mus musculus, BaF3
Procedure: as §2, §3

[4] = tested on: c-KIT auto-phosphorylation in HMC1.2 cells; test: Western blot of c-KIT signaling; type: cell-based, human; conditions: 10 μM
Procedure: (§4) Cells were harvested and lysed using RIPA buffer containing 50 mM HEPES (pH 7.4), 1% Triton X-100, 2 mM EDTA, 150 mM NaCl, 2.5 mM NaF, 5 mM Na3VO4, and protease inhibitor cocktail tablet (Roche, # 11–878-580–001). Proteins were separated and transferred to an NC membrane. The membranes were blocked using 5% skim milk in TBS-T buffer. The p-c-KIT (Tyr703, # 3073), p-AKT (Ser473, # 9271), p-ERK (Thr202/Tyr204, # 8544), ERK (# 4695), p-PLCγ (Tyr783, # 14008), p-STAT3 (Tyr705, # 4074), and PARP (# 9542) antibodies were obtained from Cell Signaling Technologies. The β-actin (# sc-47778) and STAT3 (# sc-482) antibodies were obtained from Santa Cruz Biotechnology. AKT (A18120) antibody was purchased from ABclonal. Each primary antibody was incubated overnight at 4 °C. The secondary antibody (GenDEPOT) was incubated for 1 h at room temperature. Proteins were detected using ECL substrate.

[5] = tested on: phosphorylated c-KIT (Tyr703) and downstream signaling in GIST-T1 cells; test: Western blot of c-KIT signaling; type: cell-based, human
Procedure: as §4

[6] = tested on: c-KIT auto-phosphorylation in c-KIT D816V Ba/F3 cells; test: Western blot of c-KIT signaling; type: cell-based; conditions: 10 μM
Procedure: as §4

GIST-T1 cells [7] = test: Apoptosis analysis (annexinV/PI flow cytometry); type: cell-based, human; conditions: GIST-T1, 0.05 μM
Procedure: (§5) After compound treatment in GIST-T1 and HMC1.2 cells for 24 h, cells were fixed with 70% cold ethanol. Then, cells were incubated with 50 μg propidium iodide/mL solution (PI, Sigma) containing 1 mg RNase A/mL for 30 min in the dark. Cell cycle arrest was analyzed (BD Accuri), and data were processed using BD Accuri^TM C6 software. For apoptosis analysis, compound treatment for 24–48 h, cells were harvested and stained with annexinV and PI solution. 1 × 10^5 cells were analyzed using flow cytometric analysis.

HMC1.2 cells [8] = test: Apoptosis analysis (annexinV/PI flow cytometry); type: cell-based, human; conditions: HMC1.2, 1 μM, 48 h
Procedure: as §5

c-KIT D816V Ba/F3 cells [9] = test: Apoptosis analysis (annexinV/PI flow cytometry); type: cell-based; conditions: c-KIT D816V Ba/F3, 1 μM
Procedure: as §5

GIST-T1 cells [10] = test: Cell cycle arrest analysis (PI flow cytometry); type: cell-based, human; conditions: GIST-T1, 0.01 μM
Procedure: as §5

HMC1.2 cells [11] = test: Cell cycle arrest analysis (PI flow cytometry); type: cell-based, human; conditions: HMC1.2, 0.5 μM, 24 h
Procedure: as §5

c-KIT D816V Ba/F3 cells [12] = test: Cell cycle arrest analysis (PI flow cytometry); type: cell-based; conditions: c-KIT D816V Ba/F3, 0.5 μM, 24 h
GIST-T1 cells [13] = test: Migration (wound healing) assay; type: cell-based, human; conditions: GIST-T1, 0.005 μM and 0.05 μM, 36 h
Procedure: GIST-T1 cells were seeded in 6-well plates at 2 × 10^6 cells. Next day, cells were washed with PBS and wounded in the center of each well. Then, GIST-T1 cells were washed with PBS and added to fresh DMEM.

GIST-T1 cells [14] = test: Invasion assay (Transwell); type: cell-based, human; conditions: GIST-T1, 0.05 μM, 48 h
Procedure: The cell invasion assay was performed using Transwell membrane filter inserts (Corning Costar Corp., Corning, NY, USA). GIST-T1 cells were then suspended in serum-free DMEM at 2 × 10^6 cells and seeded in the upper chambers. In the lower chambers, the DMEM medium containing 10% FBS was added. After 48 h, the cells migrating down the membrane were stained with crystal violet.

c-KIT = c-KIT (Homo sapiens, UniProt P10721); test: Radiometric biochemical kinase assay on c-KIT; set-up: purchased Reaction Biology Corp. (contract assay service); conditions: for IC50: read-out: IC50 against c-KIT; for fold decreased c-KIT inhibitory activity relative to 6r: versus 6r
Procedure: as §1
Enzymatic inhibitory activities of all synthesized thiazolo[5,4-b]pyridine derivatives against c-KIT were measured using radiometric biochemical kinase assays (Table 1). We first explored the R1 group of the thiazolo[5,4-b]pyridine scaffold.

GIST = tested on: GIST; set-up: method as in PMID 32601076; conditions: fourth-line treatment; cited from earlier work
GIST-T1 cells [15] = test: Soft agar assay (anchorage-independent growth); type: cell-based, human; conditions: GIST-T1, two different concentrations, 3 weeks
Procedure: Anchorage-independent growth was assessed by determining colony formation on soft agar. GIST-T1 cells in DMEM media containing 0.7% agar were plated at 5,000 cells per well. Cells were treated with each compound for 3 weeks, and the media were changed every 3 days. Colonies were stained using iodonitrotetrazolium chloride (Sigma Aldrich). The average number colonies were counted using ImageJ software (version 1.53e, National Institutes of Health, Bethesda, MD, USA)

Row | GI50 (c-KIT D816V Ba/F3 cells [3]) | IC50 (c-KIT) | Compound | GI50 (GIST-T1 cells [1]) | GI50 (HMC1.2 cells [2]) | GI50 (parental Ba/F3 cells) | further results
1 |  | 1510 nM | Cc1ccc(NC(=O)c2ccc(CN3CCN(C)CC3)c(C(F)(F)F)c2)cc1-c1cnc2sc(NC(=O)C3CCCCC3)nc2c1 [7a] | 80 ± 10 nM | 4580 ± 320 nM |  | fold decreased c-KIT inhibitory activity relative to 6r (c-KIT): 5.3- to 10.8 fold
2 |  | 740 nM | Cc1ccc(NC(=O)c2ccc(CN3CCN(C)CC3)c(C(F)(F)F)c2)cc1-c1cnc2sc(NC(=O)c3ccccc3)nc2c1 [7b] | 100 ± 10 nM | 5220 ± 590 nM |  | fold decreased c-KIT inhibitory activity relative to 6r (c-KIT): 5.3- to 10.8 fold
3 | 530 ± 60 nM | 100 nM | CC(=O)Nc1nc2cc(-c3cc(NC(=O)c4ccc(CN5CCN(C)CC5)c(C(F)(F)F)c4)ccc3C)cnc2s1 [7c] | 10 nM | 1520 ± 430 nM | 10500 ± 3440 nM | IC50 (c-KIT V560G/D816V): 5070 ± 710 nM; fold higher enzymatic inhibitory activity against c-KIT V560G/D816V compared with imatinib (c-KIT V560G/D816V): 4.9- to 8.0 fold; c-KIT auto-phosphorylation [4]: completely inhibited; levels of phosphorylated c-KIT (Tyr703) and downstream mediators p-AKT, p-ERK, p-PLCγ, p-STAT3 [5]: remarkably inhibited; c-KIT auto-phosphorylation [6]: completely inhibited; production of apoptotic cells (GIST-T1 cells [7]): remarkably induced; production of apoptotic cells (HMC1.2 cells [8]): remarkably induced; production of apoptotic cells (c-KIT D816V Ba/F3 cells [9]): remarkably induced; G0/G1 arrest induced compared to control (GIST-T1 cells [10]): 25–35%; G0/G1 arrest compared with imatinib (HMC1.2 cells [11]): more strongly; G0/G1 arrest compared with imatinib (c-KIT D816V Ba/F3 cells [12]): more strongly; cell migration decreased compared to control (GIST-T1 cells [13]): 50–70%; invasion capability (GIST-T1 cells [14]): significantly suppressing
4 |  | 880 nM | CC(=O)Nc1nc2cc(-c3cc(NC(=O)c4ccc(N5CCOCC5)c(C(F)(F)F)c4)ccc3C)cnc2s1 [7e] | 230 ± 70 nM | 14000 ± 10200 nM |  | 
5 |  | 3630 nM | CC(=O)Nc1nc2cc(-c3cc(NC(=O)c4ccc(CN5CCOCC5)c(C(F)(F)F)c4)ccc3C)cnc2s1 [7f] | 300 ± 60 nM | 28400 ± 13300 nM |  | 
6 |  | 180 nM | CC(=O)Nc1nc2cc(-c3cc(NC(=O)c4ccc(CN5CCCC(N(C)C)C5)c(C(F)(F)F)c4)ccc3C)cnc2s1 (centres unmarked) [7g] | 70 ± 10 nM | 4880 ± 1180 nM |  | 
7 |  | 100 nM | CC(=O)Nc1nc2cc(-c3cc(NC(=O)c4ccc(CN(C)CCN(C)C)c(C(F)(F)F)c4)ccc3C)cnc2s1 [7h] | 20 nM | 4980 ± 320 nM |  | 

Continued, compound first:

Row | Compound | GI50 (c-KIT D816V Ba/F3 cells [3]) | IC50 (c-KIT) | GI50 (GIST-T1 cells [1]) | GI50 (HMC1.2 cells [2]) | GI50 (parental Ba/F3 cells) | further results
8 | Cc1ccc(NC(=O)c2ccc(CN3CCNCC3)c(C(F)(F)F)c2)cc1-c1cnc2sc(N)nc2c1 [6s] | 1060 ± 150 nM | 370 nM | 20 nM | 1330 ± 430 nM | 10500 ± 3590 nM | IC50 (c-KIT V560G/D816V): 7670 ± 2640 nM; fold higher enzymatic inhibitory activity against c-KIT V560G/D816V compared with imatinib (c-KIT V560G/D816V): 4.9- to 8.0 fold; c-KIT auto-phosphorylation [4]: completely inhibited; levels of phosphorylated c-KIT (Tyr703) and downstream mediators p-AKT, p-ERK, p-PLCγ, p-STAT3 [5]: remarkably inhibited; c-KIT auto-phosphorylation [6]: completely inhibited; production of apoptotic cells (GIST-T1 cells [7]): remarkably induced; production of apoptotic cells (HMC1.2 cells [8]): remarkably induced; production of apoptotic cells (c-KIT D816V Ba/F3 cells [9]): remarkably induced; G0/G1 arrest induced compared to control (GIST-T1 cells [10]): 25–35%; G0/G1 arrest compared with imatinib (HMC1.2 cells [11]): more strongly; G0/G1 arrest compared with imatinib (c-KIT D816V Ba/F3 cells [12]): more strongly; cell migration decreased compared to control (GIST-T1 cells [13]): 50–70%; invasion capability (GIST-T1 cells [14]): significantly suppressing
9 | Cc1ccc(NC(=O)c2ccc(N3CCOCC3)c(C(F)(F)F)c2)cc1-c1cnc2sc(NC(=O)C3CCCCC3)nc2c1 [7d] |  |  | 8130 ± 1810 nM |  |  | GI50 HMC1.2 (HMC1.2 cells [2]; inactive = less than 50% inhibition at a concentration of 50 μM): inactive ^b; IC50 against c-KIT (c-KIT; radiometric biochemical kinase assay, 10 μM ATP, inactive = less than 50% inhibition at a concentration of 10 μM): inactive^b
10 | CCn1c(=O)c(-c2cc(NC(=O)Nc3ccccc3)c(F)cc2Br)cc2cnc(NC)cc21 [Ripretinib] |  |  |  |  |  | overall response rate (GIST): 9.4%
11 | Cc1ccc(NC(=O)c2ccc(CN3CCN(C)CC3)cc2)cc1Nc1nccc(-c2cccnc2)n1 [imatinib, reference compound] | 12200 ± 2060 nM |  |  | 27100 ± 3360 nM | 17000 ± 200 nM | levels of phosphorylated c-KIT (Tyr703) and downstream mediators p-AKT, p-ERK, p-PLCγ, p-STAT3 [5]: remarkably inhibited; production of apoptotic cells (HMC1.2 cells [8]): did not induce apoptosis; G0/G1 arrest induced compared to control (GIST-T1 cells [10]): 25–35%; anchorage-independent growth (GIST-T1 cells [15]): dramatic inhibition
12 | CCN(CC)CCNC(=O)c1c(C)[nH]c(/C=C2\C(=O)Nc3ccc(F)cc32)c1C [sunitinib, reference compound] | 580 ± 290 nM |  | 10 nM | 2530 ± 350 nM | 2720 ± 300 nM | 

Source: article PMC9817970 (Cancers, 2022)
